How the values were obtained:
[1] = biological target: T1, interaction between the KRAS protein subtype G12D and the SOS1 protein (Homo sapiens, UniProt Q07889); experiment: Inhibition of the interaction between KRAS G12D and SOS1 protein (AlphaLISA/AlphaScreen); type: binding; settings: KRAS G12D + GST-TEV-SOS1(564-1049) + GDP
T1 construct: GST-TEV-SOS1(564-1049) (Viva Biotech, SOS1-191010); purchased SOS1: Viva Biotech; KRAS: Shanghai Panchao Biotechnology Co., Ltd. SOS1-191010
T1 sequence (Q07889 564-1049): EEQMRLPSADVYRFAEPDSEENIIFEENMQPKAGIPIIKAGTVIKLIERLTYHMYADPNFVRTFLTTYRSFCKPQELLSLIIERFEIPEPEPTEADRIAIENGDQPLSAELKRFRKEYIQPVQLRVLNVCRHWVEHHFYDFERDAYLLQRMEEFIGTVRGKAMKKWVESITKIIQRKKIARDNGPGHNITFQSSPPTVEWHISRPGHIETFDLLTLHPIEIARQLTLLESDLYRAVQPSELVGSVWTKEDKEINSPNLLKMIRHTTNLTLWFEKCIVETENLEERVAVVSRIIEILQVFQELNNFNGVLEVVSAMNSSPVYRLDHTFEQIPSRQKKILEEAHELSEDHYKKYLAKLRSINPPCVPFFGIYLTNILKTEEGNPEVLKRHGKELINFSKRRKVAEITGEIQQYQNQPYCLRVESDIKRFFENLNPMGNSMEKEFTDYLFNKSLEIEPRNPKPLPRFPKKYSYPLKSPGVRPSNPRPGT
Experimental: (§1) Test Example 1: Inhibitory Ability of Compounds of the Present Disclosure to the Interaction Between the KRAS Protein Subtype G12D or G12V and the SOS1 Protein. The inhibitory ability of the compounds of the present disclosure to the interaction between the KRAS protein subtype G12D or G12V and the SOS1 protein was determined by the following method. The experimental method was briefly described as follows:
(§2) 1. The experimental buffer was prepared prior to the start of the experiment: 1×PBS+0.1% BSA+0.05% tween 20.
(§3) 2. KRAS G12D and KRAS-G12V proteins were labeled with biotin using the biotin labeling kit.
(§4) 1. Firstly, the biotin-labeled KRAS G12D or KRAS G12V protein was mixed and incubated with the SOS1 protein and GDP for later use.
(§5) 2. AlphaLISA glutathione acceptor beads and AlphaScreen streptavidin donor beads were mixed at a ratio of 1:1 to make the concentration of 40 μg/mL for later use.
(§6) 3. The compound was formulated with the experimental buffer to obtain 10 concentration points by 5-fold gradient dilution from an initial concentration of 40 μM.
(§7) 4. In the 384-well microplate, 10 μL of a mixture of KRAS G12D or KRAS G12V protein and SOS1 and GDP and 5 μL of the diluted compound were added to each well and incubated at room temperature for 30 min away from the light.
(§8) 5. Then, 5 μL of a mixture of AlphaLISA glutathione acceptor beads and AlphaScreen streptavidin donor beads was added to each well and incubated at room temperature for 60 min away from the light.
(§9) 6. The fluorescence values were read on a multi-mode microplate reader.
(§10) 7. IC50 values of the compounds were calculated using Graphpad Prism.

[2] = biological target: T2, interaction between the KRAS protein subtype G12V and the SOS1 protein (Homo sapiens, UniProt Q07889); experiment: Inhibition of the interaction between KRAS G12V and SOS1 protein (AlphaLISA/AlphaScreen); type: binding; settings: KRAS G12V + GST-TEV-SOS1(564-1049) + GDP
T2 construct: GST-TEV-SOS1(564-1049) (Viva Biotech, SOS1-191010); purchased SOS1: Viva Biotech; KRAS: Shanghai Panchao Biotechnology Co., Ltd. SOS1-191010
T2 sequence (Q07889 564-1049): T1 sequence (Q07889 564-1049)
Experimental: as §1, §2, §3, §4, §5, §6, §7, §8, §9, §10

[3] = tested on: ERK phosphorylation of H358 cells; experiment: Inhibition of ERK phosphorylation of H358 cells (HTRF pERK/total ERK); type: cell-based; settings: Homo sapiens, NCI-H358, 1 h incubation, pERK/total ERK ratio
Experimental: This experiment is intended to evaluate the inhibition effect of the compounds of the present disclosure on the KRAS target (containing the G12C mutation) according to IC50 by determining the inhibition effect of the compounds on ERK phosphorylation of the cells.
H358 cells (ATCC, CRL-5807) were cultured in RPMI1640 (Hyclone, SH30809.01) complete medium containing 10% fetal bovine serum. On the first day of the experiment, the H358 cells were seeded into a 96-well plate at a density of 25,000 cells/well with a complete medium to form 190 μL of cell suspension per well. The plate was incubated overnight in a cell incubator at 37° C. with 5% CO2. The next day, 10 μL of test compound diluted in a gradient prepared with the complete medium was added to each well. The final concentrations of the compound were 9 concentration points obtained by 5-fold gradient dilution from 10 μM. A blank control containing 0.1% DMSO was set. The plate was incubated in a cell incubator at 37° C. with 5% CO2 for 1 h. 1 h later, the 96-well cell culture plate was taken out, the medium was removed by pipetting, 200 μL PBS (Shanghai BasalMedia Technologies Co., Ltd., B320) was added to each well, and the cells were washed once. PBS was removed by pipetting, 50 μL of lysis buffer (Cisbio, 64KL1FDF) containing a blocking reagent (Cisbio, 64KB1AAC) was added to each well, and the plate was shaken on a shaker at room temperature for 40 min for lysis. After lysis, the lysate was pipetted and mixed well, 16 μL of lysate was transferred from each well to each of two HTRF 96-well assay plates (Cisbio, 66PL96100), and then 4 μL of premixed phospho-ERK1/2 antibody solution (Cisbio, 64AERPEG) or 4 μL of premixed total-ERK1/2 antibody solution (Cisbio, 64NRKPEG) was added to each of the two plates. The microplate was sealed with a sealing membrane, centrifuged for 1 min in a microplate centrifuge, and incubated overnight at room temperature away from the light. On the third day, the fluorescence values at an excitation wavelength of 337 nm and at emission wavelengths of 665 nm and 620 nm were read using a PHERAstar multi-mode microplate reader (BMG Labtech, S/N 471-0361).
IC50 values for inhibitory activity of the compounds were calculated using Graphpad Prism software based on compound concentrations and pERK/total ERK ratio.

H358 cells = experiment: Inhibition of proliferation of H358 cells (CellTiter-Glo 3D); type: cell-based; settings: Homo sapiens, NCI-H358, low adsorption plate, 120 h
Experimental: This example is intended to evaluate the inhibition effect of the compounds of the present disclosure on the KRAS target (containing the G12C mutation) by testing the inhibition effect of the compounds of the present disclosure on the proliferation of H358 cells.
H358 cells (ATCC, CRL-5807) were cultured in a complete medium, namely RPMI1640 medium (Hyclone, SH30809.01) containing 10% fetal bovine serum (Corning, 35-076-CV). On the first day of the experiment, the H358 cells were seeded into a 96-well low adsorption plate (Coming, CLS7007-24EA) at a density of 1500 cells/well with a complete medium to form 90 μL of cell suspension per well. The plate was centrifuged at 2000 rpm for 5 min at room temperature and then incubated overnight in a cell incubator at 37° C. with 5% CO2. The next day, 10 μL of test compound diluted in a gradient prepared with the complete medium was added to each well. The final concentrations of the compound were 9 concentration points obtained by 5-fold gradient dilution from 10 μM. A blank control containing 0.1% DMSO was set. The plate was incubated in a cell incubator at 37° C. with 5% CO2 for 120 h. On the seventh day, the 96-well cell culture plate was taken out and 50 μL of CellTiter-Glo® 3D reagent (Promega, G9682) was added into each well. The plate was shaken at room temperature for 25 min, pipetted and mixed well, from which 50 μL of the mixture was transferred into a white impermeable 96-well plate (PE, 6005290). The luminescence signal values were read using a multi-mode microplate reader (PerkinElmer, VICTOR 3).
IC50 values for the inhibitory activity of the compounds were calculated using Graphpad Prism software.

| SMILES | IC50 [1] | IC50 [2] | IC50 [3] | IC50 (H358 cells) |
| --- | --- | --- | --- | --- |
| Cc1nc(N[C@H](C)c2cccc3c2OCC3(F)F)c2cc([C@]3(O)CC[C@@H](O)CC3)c(=O)[nH]c2n1 (racemic) [Example 25-p1, rac-4-(((R)-1-(3,3-difluoro-2,3-dihydrobenzofuran-7-yl)ethyl)amino)-6-((1s,4S)-1,4-dihydroxycyclohexyl)-2-methylpyrido[2,3-d]pyrimidin-7(8H)-one] | 31 nM | 35 nM | 101 nM | 120 nM |
| Cc1nc(N[C@H](C)c2cccc(C(F)(F)CO)c2F)c2cc(C3=CCOCC3)c(=O)[nH]c2n1 [Example 1, (R)-4-((1-(3-(1,1-difluoro-2-hydroxyethyl)-2-fluorophenyl)ethyl)amino)-6-(3,6-dihydro-2H-pyran-4-yl)-2-methylpyrido[2,3-d]pyrimidin-7(8H)-one] | 22 nM | 54 nM | 59 nM | 34 nM |
| Cc1nc(N[C@H](C)c2cccc(C(F)F)c2F)c2cc(N3CCOCC3)c(=O)[nH]c2n1 [Example 16, (R)-4-((1-(3-(difluoromethyl)-2-fluorophenyl)ethyl)amino)-2-methyl-6-morpholinopyrido[2,3-d]pyrimidin-7(8H)-one] | 39 nM | 136 nM | 218 nM | 97 nM |
| CC(=O)N1CC=C(c2cc3c(N[C@H](C)c4cc(N)cc(C(F)(F)F)c4)nc(C)nc3[nH]c2=O)CC1 [Example 4, (R)-6-(1-acetyl-1,2,3,6-tetrahydropyridin-4-yl)-4-((1-(3-amino-5-(trifluoromethyl)phenyl)ethyl)amino)-2-methylpyrido[2,3-d]pyrimidin-7(8H)-one] | 17 nM | 67 nM | 41 nM | 97 nM |
| COCC(=O)N1CCC(c2cc3c(N[C@H](C)c4cccc(C(F)F)c4F)nc(C)nc3[nH]c2=O)CC1 [Example 20, (R)-4-((1-(3-(difluoromethyl)-2-fluorophenyl)ethyl)amino)-6-(1-(2-methoxyacetyl)piperidin-4-yl)-2-methylpyrido[2,3-d]pyrimidin-7(8H)-one] | 19 nM | 60 nM | 78 nM | 118 nM |
| CC(=O)N1CCC(O)(c2cc3c(N[C@H](C)c4cccc(C(F)F)c4F)nc(C)nc3[nH]c2=O)CC1 [Example 12, (R)-6-(1-acetyl-4-hydroxypiperidin-4-yl)-4-((1-(3-(difluoromethyl)-2-fluorophenyl)ethyl)amino)-2-methylpyrido[2,3-d]pyrimidin-7(8H)-one] | 14 nM | 50 nM | 48 nM | 55 nM |
| Cc1nc(N[C@H](C)c2cccc(C(F)F)c2F)c2cc([C@]3(O)CC[C@@H](O)CC3)c(=O)n(C)c2n1 [Example 28-p1, 4-(((R)-1-(3-(difluoromethyl)-2-fluorophenyl)ethyl)amino)-6-((1s,4S)-1,4-dihydroxycyclohexyl)-2,8-dimethylpyrido[2,3-d]pyrimidin-7(8H)-one] | 100 nM | 97 nM | 231 nM | 243 nM |
| Cc1nc(N[C@H](C)c2cccc(C(F)F)c2F)c2cc(C3(O)CCN(C(=O)CC#N)CC3)c(=O)[nH]c2n1 [Example 21, (R)-3-(4-(4-((1-(3-(difluoromethyl)-2-fluorophenyl)ethyl)amino)-2-methyl-7-oxo-7,8-dihydropyrido[2,3-d]pyrimidin-6-yl)-4-hydroxypiperidin-1-yl)-3-oxopropanenitrile] | 15 nM | 54 nM | 87 nM | 62 nM |
| Cc1nc(N[C@H](C)c2cccc3c2OCC3(F)F)c2cc([C@]3(O)CC[C@H](O)CC3)c(=O)[nH]c2n1 (racemic) [Example 25-p2, rac-4-(((R)-1-(3,3-difluoro-2,3-dihydrobenzofuran-7-yl)ethyl)amino)-6-((1r,4R)-1,4-dihydroxycyclohexyl)-2-methylpyrido[2,3-d]pyrimidin-7(8H)-one] | 37 nM | 65 nM | 489 nM | 1020 nM |

— US20230219951A1, “PYRIDINE-PYRIMIDINE DERIVATIVE, PREPARATION METHOD THEREFOR AND PHARMACEUTICAL USE THEREOF” (Jiangsu Hengrui Pharmaceuticals Co., Ltd., priority 2020, published 2023)
